Here are results for 52 compounds from US11274090B2, “P300/CBP HAT inhibitors” (Constellation Pharmaceuticals, Inc., priority 2018, dated 2022).

Each structure is given as a SMILES string. Some results are limits rather than exact numbers.

Sequence of p300 HAT domain (residues 1287-1666) (Q09472 1287-1666): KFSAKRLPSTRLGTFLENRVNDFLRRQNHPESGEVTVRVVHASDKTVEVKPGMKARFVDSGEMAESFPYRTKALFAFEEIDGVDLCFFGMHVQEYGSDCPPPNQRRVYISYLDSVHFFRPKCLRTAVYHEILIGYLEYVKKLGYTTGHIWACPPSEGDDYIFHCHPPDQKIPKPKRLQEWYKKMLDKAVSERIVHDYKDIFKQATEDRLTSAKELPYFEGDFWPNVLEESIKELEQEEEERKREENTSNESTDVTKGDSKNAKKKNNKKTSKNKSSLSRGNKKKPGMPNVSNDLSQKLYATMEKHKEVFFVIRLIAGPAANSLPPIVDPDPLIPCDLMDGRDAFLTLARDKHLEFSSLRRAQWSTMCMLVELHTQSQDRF

This assay deals with p300 HAT domain (residues 1287-1666) (Homo sapiens (Human), UniProt Q09472). Put plainly: p300 HAT SPA assay (scintillation proximity assay, acetylation of biotinylated H3(1-21) peptide). To be noted: average of at least 2 replicate titrations. The class given is biochemical. In outline:
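Scintillation proximity readout of acetylated biotin-H3(1-21) captured on streptavidin plates after 1.5 hr at RT; enzyme was Ni2+/anion-exchange-purified HAT domain in 20 mM Hepes pH 7.5. Inhibitor IC50s calculated from the data.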
(Scintillation proximity formats need no separation of bound from free tracer.)
`CC(CNC(C(=O)Nc1ccc(-c2cnn(CC(F)(F)F)c2)cn1)c1ccccc1)c1ccc(C#N)cc1` (single isomer, unassigned) [83 Isomer 3]: the IC50 was 503 nM. The compound `CC(CNC(C(=O)Nc1ccc(-c2cnn(CC(F)(F)F)c2)cn1)c1ccccc1)c1ccc(C#N)cc1` (single isomer, unassigned) [83 Isomer 4] yielded an IC50 of 20.6 nM. The figure for `C[C@H](CNC(C(=O)Nc1ccc(-c2cnn(CC(=O)N(C)C)c2)cn1)c1ccccc1)c1ccc(C#N)cc1` (single isomer, unassigned) [84 Isomer 1] is 395 nM; for `Cn1cc(-c2ccc(NC(=O)C(NCCc3ccc(C#N)c(F)c3)c3ccccc3)nc2)cn1` (single isomer, unassigned) [85 Isomer 1] it is 31.9 nM. The figure for `Cn1cc(-c2ccc(NC(=O)C(NCCc3ccc(C#N)c(F)c3)c3ccccc3)nc2)cn1` (single isomer, unassigned) [85 Isomer 2] is 470 nM; for `COc1ccccc1C(NCCc1ccc(C#N)cc1)C(=O)Nc1ccc(-c2cnn(C)c2)cn1` (single isomer, unassigned) [87 Isomer 1] it is 264 nM. The same measure for `COc1ccccc1C(NCCc1ccc(C#N)cc1)C(=O)Nc1ccc(-c2cnn(C)c2)cn1` (single isomer, unassigned) [87 Isomer 2]: more than 2000 nM; for `Cn1cc(-c2ccc(NC(=O)C(NCCc3ccc(C#N)cc3)c3ccccc3Cl)nc2)cn1` (single isomer, unassigned) [88 Isomer 1]: 65.4 nM; for `Cn1cc(-c2ccc(NC(=O)C(NCCc3ccc(C#N)cc3)c3ccccc3Cl)nc2)cn1` (single isomer, unassigned) [88 Isomer 2]: more than 2000 nM. `Cn1cc(-c2ccc(NC(=O)C(NCCc3ccc(C#N)cc3)C3CCCCC3)nc2)cn1` (single isomer, unassigned) [89 Isomer 1] came in with an IC50 of more than 2000 nM. The compound `Cn1cc(-c2ccc(NC(=O)C(NCCc3ccc(C#N)cc3)C3CCCCC3)nc2)cn1` (single isomer, unassigned) [89 Isomer 2] returned an IC50 of 1430 nM. `CC(CNC(C(=O)Nc1ccc(-c2cnn(C)c2)cn1)c1ccccc1)c1ccc(C#N)cc1F` (single isomer, unassigned) [90 Isomer 1]: the IC50 came to 210 nM. `CC(CNC(C(=O)Nc1ccc(-c2cnn(C)c2)cn1)c1ccccc1)c1ccc(C#N)cc1F` (single isomer, unassigned) [90 Isomer 3] had an IC50 of 1600 nM. The compound `CC(CNC(C(=O)Nc1ccc(-c2cnn(C)c2)cn1)c1ccccc1)c1ccc(C#N)cc1F` (single isomer, unassigned) [90 Isomer 4] returned an IC50 of more than 2000 nM. The figure for `CC(CNC(C(=O)Nc1ccc(-c2cnn(C)c2)cn1)c1ccccc1)c1ccc(C#N)c(F)c1` (single isomer, unassigned) [91 Isomer 1] is 473 nM.

As for `CC(CNC(C(=O)Nc1ccc(-c2cnn(C)c2)cn1)c1ccccc1)c1ccc(C#N)c(F)c1` (single isomer, unassigned) [91 Isomer 3], it took 1020 nM to reach half-maximal inhibition (IC50).

Regarding `CC(CNC(C(=O)Nc1ccc(-c2cnn(C)c2)cn1)c1ccccc1)c1ccc(C#N)c(F)c1` (single isomer, unassigned) [91 Isomer 4], the IC50 is 401 nM. The figure for `CO[C@@H]1CCN(c2ccc(NC(=O)C(NCC(C)c3ccc(C#N)cc3)c3ccccc3)nc2)C1` (single isomer, unassigned) [92 Isomer 1] is 881 nM. The figure for `CO[C@@H]1CCN(c2ccc(NC(=O)C(NCC(C)c3ccc(C#N)cc3)c3ccccc3)nc2)C1` (single isomer, unassigned) [92 Isomer 2] is 11.5 nM; for `CO[C@@H]1CCN(c2ccc(NC(=O)C(NCC(C)c3ccc(C#N)cc3)c3ccccc3)nc2)C1` (single isomer, unassigned) [92 Isomer 3] it is 599 nM. Take `CO[C@@H]1CCN(c2ccc(NC(=O)C(NCC(C)c3ccc(C#N)cc3)c3ccccc3)nc2)C1` (single isomer, unassigned) [92 Isomer 4]: the IC50 is more than 2000 nM. In turn, `CO[C@H]1CCN(c2ccc(NC(=O)C(NCC(C)c3ccc(C#N)cc3)c3ccccc3)nc2)C1` (single isomer, unassigned) [93 Isomer 1] showed an IC50 of 412 nM. In other words, the sub-micromolar range. The figure for `CO[C@H]1CCN(c2ccc(NC(=O)C(NCC(C)c3ccc(C#N)cc3)c3ccccc3)nc2)C1` (single isomer, unassigned) [93 Isomer 2] is more than 2000 nM. Compound `CO[C@H]1CCN(c2ccc(NC(=O)C(NCC(C)c3ccc(C#N)cc3)c3ccccc3)nc2)C1` (single isomer, unassigned) [93 Isomer 3] gave an IC50 of 36 nM. The figure for `CO[C@H]1CCN(c2ccc(NC(=O)C(NCC(C)c3ccc(C#N)cc3)c3ccccc3)nc2)C1` (single isomer, unassigned) [93 Isomer 4] is more than 2000 nM. `Cn1cc(-c2ccc(NC(=O)C(NCCc3ccc(Cl)cc3C#N)c3ccccc3)nc2)cn1` (single isomer, unassigned) [94 Isomer 1] yielded an IC50 of 85.1 nM. As to `Cn1cc(-c2ccc(NC(=O)C(NCCc3ccc(Cl)cc3C#N)c3ccccc3)nc2)cn1` (single isomer, unassigned) [94 Isomer 2], the IC50 was more than 2000 nM. Consider `Cn1cc(-c2ccc(NC(=O)C(NCCc3ccc(C#N)cc3C(F)(F)F)c3ccccc3)nc2)cn1` (single isomer, unassigned) [95 Isomer 1], for which the IC50 came to 41.4 nM. In the case of `Cn1cc(-c2ccc(NC(=O)C(NCCc3ccc(C#N)cc3C(F)(F)F)c3ccccc3)nc2)cn1` (single isomer, unassigned) [95 Isomer 2], half-maximal inhibition (IC50) required 1010 nM. `N#Cc1ccc(CCNC(C(=O)Nc2ccc(N3CCC4(COC4)C3)cn2)c2ccccc2)cc1` (single isomer, unassigned) [96 Isomer 1] yielded an IC50 of 67.4 nM. In the case of `N#Cc1ccc(CCNC(C(=O)Nc2ccc(N3CCC4(COC4)C3)cn2)c2ccccc2)cc1` (single isomer, unassigned) [96 Isomer 2], the IC50 was more than 2000 nM. Regarding `Cn1cc(-c2ccc(NC(=O)C(NCC3(c4ccc(Cl)cc4)CC3)c3ccccc3)nc2)cn1` (single isomer, unassigned) [97 Isomer 1], 191 nM corresponded to half-maximal inhibition (IC50). The figure for `Cn1cc(-c2ccc(NC(=O)C(NCC3(c4ccc(Cl)cc4)CC3)c3ccccc3)nc2)cn1` (single isomer, unassigned) [97 Isomer 2] is more than 2000 nM. The same measure for `CC(CNC(C(=O)Nc1ccc(-c2cnn(C)n2)cn1)c1ccccc1)c1ccc(C#N)cc1` (single isomer, unassigned) [98 Isomer 1]: 571 nM; for `CC(CNC(C(=O)Nc1ccc(-c2cnn(C)n2)cn1)c1ccccc1)c1ccc(C#N)cc1` (single isomer, unassigned) [98 Isomer 3]: more than 2000 nM. The compound `CC(CNC(C(=O)Nc1ccc(-c2cnn(C)n2)cn1)c1ccccc1)c1ccc(C#N)cc1` (single isomer, unassigned) [98 Isomer 4] displayed an IC50 of 1460 nM. This lies in the single-digit micromolar range.

Compound `CC(CNC(C(=O)Nc1ccc(-c2cnn(C)n2)cn1)c1ccccc1)c1ccc(C(F)(F)F)cc1` (single isomer, unassigned) [99 Isomer 1] gave an IC50 of 869 nM. The same measure for `CC(CNC(C(=O)Nc1ccc(-c2cnn(C)n2)cn1)c1ccccc1)c1ccc(C(F)(F)F)cc1` (single isomer, unassigned) [99 Isomer 2]: 1020 nM; for `CC(CNC(C(=O)Nc1ccc(-c2cnn(C)n2)cn1)c1ccccc1)c1ccc(C(F)(F)F)cc1` (single isomer, unassigned) [99 Isomer 3]: more than 2000 nM. The figure for `CC(CNC(C(=O)Nc1ccc(-c2cnn(C)n2)cn1)c1ccccc1)c1ccc(C(F)(F)F)cc1` (single isomer, unassigned) [99 Isomer 4] is 28.3 nM; for `CC(CNC(C(=O)Nc1ccc(-c2cn(C)nn2)cn1)c1ccccc1)c1ccc(C#N)cc1` (single isomer, unassigned) [100 Isomer 1] it is 668 nM; for `CC(CNC(C(=O)Nc1ccc(-c2cn(C)nn2)cn1)c1ccccc1)c1ccc(C#N)cc1` (single isomer, unassigned) [100 Isomer 3] it is more than 2000 nM. The same measure for `CC(CNC(C(=O)Nc1ccc(-c2cn(C)nn2)cn1)c1ccccc1)c1ccc(C#N)cc1` (single isomer, unassigned) [100 Isomer 4]: more than 2000 nM; for `CC(CNC(C(=O)Nc1ccc(N2CCN(C)C(=O)C2)cn1)c1ccccc1)c1ccc(C#N)cc1` (single isomer, unassigned) [101 Isomer 2]: 245 nM. In turn, `CC(CNC(C(=O)Nc1ccc(N2CCN(C)C(=O)C2)cn1)c1ccccc1)c1ccc(C#N)cc1` (single isomer, unassigned) [101 Isomer 3] had an IC50 of 355 nM. The same measure for `CC(CNC(C(=O)Nc1ccc(N2CCN(C)C(=O)C2)cn1)c1ccccc1)c1ccc(C#N)cc1` (single isomer, unassigned) [101 Isomer 4]: more than 2000 nM; for `CCN1CCN(c2ccc(NC(=O)C(NC[C@@H](C)c3ccc(C#N)cc3)c3ccccc3)nc2)CC1=O` (single isomer, unassigned) [102 Isomer 1]: 30.8 nM. The same measure for `CCN1CCN(c2ccc(NC(=O)C(NC[C@@H](C)c3ccc(C#N)cc3)c3ccccc3)nc2)CC1=O` (single isomer, unassigned) [102 Isomer 2]: 1550 nM; for `CC(CNC(C(=O)Nc1ccc(N2CCN(CC(F)(F)F)C(=O)C2)cn1)c1ccccc1)c1ccc(C#N)cc1` (single isomer, unassigned) [103 Isomer 1]: more than 2000 nM. The same measure for `CC(CNC(C(=O)Nc1ccc(N2CCN(CC(F)(F)F)C(=O)C2)cn1)c1ccccc1)c1ccc(C#N)cc1` (single isomer, unassigned) [103 Isomer 2]: 14.3 nM; for `CC(CNC(C(=O)Nc1ccc(N2CCN(CC(F)(F)F)C(=O)C2)cn1)c1ccccc1)c1ccc(C#N)cc1` (single isomer, unassigned) [103 Isomer 3]: 1000 nM. Turning to `CC(CNC(C(=O)Nc1ccc(N2CCN(CC(F)(F)F)C(=O)C2)cn1)c1ccccc1)c1ccc(C#N)cc1` (single isomer, unassigned) [103 Isomer 4], the IC50 is more than 2000 nM.

Broadly, the IC50 is the point on the concentration scale where inhibition reaches its midpoint.
